Reference: patent US4800211A, “5-methylthio-3-hydroxybenzo [b]thiophene-2-carboxamide derivatives as cyclooxygenase and lipoxygenase inhibitors” (Merck & Co., Inc., priority 1986, dated 1989)
Read-outs that look alike come from different tables or passages of the source.

How the values were obtained:
PAF-induced hyperalgesia = test: Platelet Activating Factor-Induced Hyperalgesia in the Rat; type: in vivo, rat (female Sprague-Dawley); conditions: for effect in the PAF-induced hyperalgesia assay (in words): pain response to PAF, rat; for % Analgesia (percentage of animals with vocalization threshold greater than 200 of vehicle-treated controls): Table 1, 30 min before PAF, readings 3 hours after PAF
Protocol: In this assay, which is sensitive to inhibition by lipoxygenase inhibitors, but not cyclooxygenase inhibitors, compounds of formula (I) reduced the pain response to PAF (Table 1).
Groups of 10 female Sprague-Dawley rats, 35-50 g (Taconic Farms), were fasted overnight prior to testing. Hyperalgesia was induced in the rat by the subplantar injection of 1 ug PAF in physiological saline. Pain threshold was measured by applying pressure to the plantar surface of the hindpaw by means of a compressed air driven piston with a 2 mm tip. Vocalization thresholds were obtained 3 hr after injection of the PAF. Compounds, prepared at various doses in 1% methylcellulose suspension, were administered perorally 30 min before PAF. For each drug treatment group, animals with response pressures in the inflamed paw of 200% of control was considered to be analgesic. The mean vocalization threshold for each group was also calculated.

[1] = test system: microsomal ram vesicular gland cyclooxygenase; test: Inhibition of microsomal ram vesicular gland cyclooxygenase; type: biochemical
From the text: The protocol for measuring inhibition of this prostaglandin-producing enzyme has been published.

[2] = molecular target: T1, RBL-1 cell 5-lipoxygenase (Rattus norvegicus, UniProt P12527); test: Inhibition of RBL-1 Cell 5-Lipoxygenase (5-HETE formation); type: biochemical; conditions: read-out: Percent Inhibition
T1 construct: measured in vitro against the RBL-1 cell 5-lipoxygenase; endogenous in cells; host or cells: RBL-1 cells
T1 sequence (P12527 1-673): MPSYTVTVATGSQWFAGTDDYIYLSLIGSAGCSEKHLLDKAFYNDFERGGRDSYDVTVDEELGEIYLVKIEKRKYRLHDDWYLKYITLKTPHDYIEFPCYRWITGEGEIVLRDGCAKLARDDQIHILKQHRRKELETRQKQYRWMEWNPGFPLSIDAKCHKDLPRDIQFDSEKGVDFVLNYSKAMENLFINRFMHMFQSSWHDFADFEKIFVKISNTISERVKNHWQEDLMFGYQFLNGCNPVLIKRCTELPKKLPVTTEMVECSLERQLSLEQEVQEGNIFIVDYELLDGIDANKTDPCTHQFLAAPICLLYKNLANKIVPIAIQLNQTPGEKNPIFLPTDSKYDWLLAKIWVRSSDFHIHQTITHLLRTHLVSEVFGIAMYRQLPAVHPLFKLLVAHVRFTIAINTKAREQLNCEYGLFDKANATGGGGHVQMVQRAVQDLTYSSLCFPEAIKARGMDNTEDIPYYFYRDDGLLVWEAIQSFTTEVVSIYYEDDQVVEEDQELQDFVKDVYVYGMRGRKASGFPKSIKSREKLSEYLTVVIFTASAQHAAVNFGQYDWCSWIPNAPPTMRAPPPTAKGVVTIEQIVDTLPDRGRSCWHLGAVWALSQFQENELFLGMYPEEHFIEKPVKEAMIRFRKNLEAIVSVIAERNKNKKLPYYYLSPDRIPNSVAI
Protocol: The ability of the compound of Formula I, e.g., Compound A, to inhibit leukotriene biosynthesis was also measured in vitro against the RBL-1 cell 5-lipoxygenase. The protocol for measuring inhibition of 5-HETE formation has been published in R. W. Egan et al., "Advances in Prostaglandin, Thromboxane, and leukotriene Research", Vol. 11 (edited by B. Samuelsson et al., Raven Press, N.Y., 1983), p. 151.

[3] = Rattus norvegicus, po, 3 h, read-out: % Rats Exhibiting Analgesia
[4] = Rattus norvegicus, Platelet, po, 3 h, Table 2, 30 mg/kg p.o., read-out: % Rats Exhibiting Analgesia

With `COc1ccc2c(c1)c(CC(=O)O)c(C)n2C(=O)c1ccc(Cl)cc1` [Indomethacin] the responders at 10 mg/kg (PAF-induced hyperalgesia; [3]) was 10% and the “effect in the PAF-induced hyperalgesia assay (in words)” value (from here on “effect”) (PAF-induced hyperalgesia) was “completely ineffective”.
In the case of `CSc1ccc2sc(C(=O)Nc3cccc(Cl)c3)c(O)c2c1` [Compound A, --N--(3chlorophenyl)-3-hydroxy-5-(methylthio)benzo[b]thiophene2-carbxamide], the “Percent Inhibition” value [1] was 95%, the inhibition at 0.5 µg/mL ([2]; 0.5 ug/ml) was 48% and the inhibition at 1 µg/mL ([2]; 1 ug/ml) was 58%. It also gave an inhibition at 2 µg/mL ([2]; 2 ug/ml) of 74%, an inhibition at 10 µg/mL ([2]; 10 ug/ml) of 83% and a responders at 30 mg/kg (PAF-induced hyperalgesia; [4]) of 90%. The “% Analgesia (percentage of animals with vocalization threshold greater than 200 of vehicle-treated controls)” value (PAF-induced hyperalgesia; 30 mg/kg p.o.) was 90%.
In the case of `CC(C(=O)O)c1ccc2oc(-c3ccc(Cl)cc3)nc2c1` (centres unmarked) [Benoxaprofen], the responders at 30 mg/kg (PAF-induced hyperalgesia; [4]) was 10% and the “effect” value (PAF-induced hyperalgesia) was “completely ineffective”.
With `O=C(O)c1cc(-c2ccc(F)cc2F)ccc1O` [Diflunisal] the responders at 30 mg/kg (PAF-induced hyperalgesia; [4]) was 10%.
`CC1=C(CC(=O)O)c2cc(F)ccc2/C1=C\c1ccc([S+](C)[O-])cc1` (centres unmarked) [Sulindac] showed a responders at 30 mg/kg (PAF-induced hyperalgesia; [4]) of 10%.
With `CSc1ccc2sc(C(=O)NCc3ccccc3)c(O)c2c1` [Compound B, 3Hydroxy-5-(methylthio)---N--(phenylmethyl)benzo[b]thiophene2-carboxmide] the “% Analgesia (percentage of animals with vocalization threshold greater than 200 of vehicle-treated controls)” value (PAF-induced hyperalgesia; 30 mg/kg p.o.) was 80%.
For `CC(C)Cc1ccc(C(C)C(=O)O)cc1` (centres unmarked) [Ibuprofen], the responders at 30 mg/kg (PAF-induced hyperalgesia; [4]) was 10% and the “effect” value (PAF-induced hyperalgesia) was “completely ineffective”.
For `CC(=O)Oc1ccccc1C(=O)O` [Aspirin], the responders at 100 mg/kg (PAF-induced hyperalgesia; [3]) was 10%.
Work on `COc1ccc2cc([C@H](C)C(=O)O)ccc2c1` [Naproxen] yielded a responders at 30 mg/kg (PAF-induced hyperalgesia; [3]) of 10%.
In the case of `CN1C(C(=O)Nc2ccccn2)=C(O)c2ccccc2S1(=O)=O` [Piroxicam], the responders at 30 mg/kg (PAF-induced hyperalgesia; [4]) was 0% and the “effect” value (PAF-induced hyperalgesia) was “completely ineffective”.
